Laboratory results from US8114846B2, “Combined treatment with an EGFR kinase inhibitor and an agent that sensitizes tumor cells to the effects of EGFR kinase inhibitors” (OSI Pharmaceuticals, LLC, priority 2006, dated 2012).
In brackets after ≈: the same amount, converted by molar mass. Entries after “also recorded” stand apart in the source; their conditions may differ.

What was measured:
BxPC3 cells = assay: Cell proliferation (Cell Titer Glo), BxPC3; type: cell-based, human; settings: 10 μM erlotinib, 72 hours; maximal growth inhibition greater than 50% = high sensitivity
Procedure: (§1) The cell lines H460, Calu6, SW1573, H1703, H292, H358, HCT-116, HT-29, FET, GEO, SW480, Colo205 CBS, BxPC3, HPAC, CFPAC, MiaPaca-2, Panc1, MDA-MB-468, BT-20, MDA-MB-435 H441, H322, A1165, Igrov-1, Ovcar-3, CA-OV-3, MDAH2774, SW626, SKOV-3, Cal-27, RPMI 2650, and MDA-MB-231 were grown in media as prescribed by the ATCC, containing 10% FCS. Hsc-2, Hsc-4 and OVK-18 were obtained from the Riken Cell Bank and were cultured according to the Riken Cell Bank recommended conditions.

Calu6 cells = settings: 10 μM erlotinib, 72 hours; maximal growth inhibition greater than 50% = high sensitivity
Procedure: (§2) Measurement of Cell Proliferation: Cell proliferation was determined using the Cell Titer Glo assay (Promega Corporation, Madison, Wisc.). Cell lines were seeded at a density of 3000 cells per well in a 96-well plate. 24 hours after plating cells were dosed with varying concentrations of drug, either as a single agent or in combination. The signal for Cell Titer Glo was determined 72 hours after dosing.
(§3) Analysis of Additivity and Synergy: The Bliss additivism model was used to classify the effect of combining rapamycin and erlotinib as additive, synergistic, or antagonistic. A theoretical curve was calculated for combined inhibition using the equation: Ebliss=EA+EB−EA*EB, where EA and EB are the fractional inhibitions obtained by drug A alone and drug B alone at specific concentrations. […] If the experimentally measured fractional inhibition is less than Ebliss the combination was said to be synergistic. If the experimentally measured fractional inhibition is greater than Ebliss the combination was said to be antagonistic. For dose response curves, the Bliss additivity value was calculated for varying doses of drug A when combined with a constant dose of drug B. This allowed an assessment as to whether drug B affected the potency of drug A or shifted its intrinsic activity. All plots were generated using PRISM® software (Graphpad Software, San Diego, Calif.).

three ovarian cell lines = assay: Apoptosis (Caspase 3/7 Glo), ovarian cell lines; type: cell-based, human; settings: 20 μM Compound A or 10 μM erlotinib
Procedure: as §1

H292 cells = assay: Cell proliferation (Cell Titer Glo), H292; type: cell-based, human; settings: 10 μM erlotinib, 72 hours; maximal growth inhibition greater than 50% = high sensitivity
Procedure: as §1

H460 cells = assay: Cell proliferation (Cell Titer Glo), H460; type: cell-based, human
Procedure: as §1

Calu-6 NSCLC tumor cells = assay: Calu6 xenograft model; type: in vivo, mice; settings: day 19; Tarceva 100 mg/kg daily oral, or rapamycin 4 mg/kg i.p. day 1, 8, 15
Description: Female CD-1 nu/nu mice (Charles River Laboratories, Wilmington, Mass.) were implanted with harvested Calu-6 NSCLC tumor cells in a single subcutaneous site on the flank of the mice in the axillary region. Tumors were allowed to grow to 200+50 mm^3, at which time the animals were sorted into treatment groups (see below) of 8 animals per group, having approximately equal body weight (+/−1 g) within a group, and tattooed on the tail for permanent identification. Tumor volumes and body weights were determined twice weekly. The tumor volume was determined by measuring in two directions with vernier calipers and calculated using the formula: Tumor volume=(length×width^2)/2. The data were plotted as the % change in mean values of tumor volume and body weight for each group. The tumor growth inhibition (% TGI) was determined as % TGI=100(1−Wt/Wc): where Wt is the median tumor volume of the treated group at time x and We is the median tumor volume of the control group at time x. Tarceva was dosed in a 6% Captisol (CyDex, Inc) in WFI (Water for Injection) solution and all control animals were dosed with an equal volume of the vehicle. Tarceva animals were dosed by oral gavage once a day for 18 days and the % TGI measured on day 19. Rapamycin was dosed in 4% ethanol/5% PEG400/5% Tween 80 in WFI. […]

[1] = system: one ovarian and one HNSCC cell line; assay: Apoptosis (Caspase 3/7 Glo), one ovarian and one HNSCC cell line; type: cell-based, human
Procedure: as §1

[2] = system: 22 cell lines derived from NSCLC, colon, pancreatic, and breast tumors; assay: cells; settings: Homo sapiens, read-out: IC50 value
Procedure: as §2, §3

[3] = Solubility limit of erlotinib; type: physicochemical
HCT-116 cells = settings: 10 μM erlotinib, 72 hours; maximal growth inhibition greater than 50% = high sensitivity
Procedure: as §2, §3

[4] = system: phosphorylation of S6 (readout for the activity of mTOR); assay: Western blot of S6 phosphorylation in tumor cell lines; type: cell-based, human; settings: 2 hours
Procedure: Preparation of Protein Lysates and Western Blotting:
With the exception of total ErbB3 (obtained from Santa Cruz Biotechnology, Inc., Santa Cruz, Calif.), all antibodies were obtained from Cell Signaling Technology, Inc. (Danvers, Mass.). For analysis of erlotinib's effect on the phosphorylation of downstream signaling proteins, cell lines were grown to approximately 70% confluency, at which time erlotinib was added at the indicated concentration, and cells were incubated at 37° C. for two hours. Where indicated, 10 ng/ml EGF ligand was added for 5 minutes. The media was removed, cells were washed two times with PBS, and cells were lysed as previously described.

H358 cells = settings: 10 μM erlotinib, 72 hours; maximal growth inhibition greater than 50% = high sensitivity
Procedure: as §2, §3

tumor cells = assay: Anti-proliferative activity across tumor cell lines; type: cell-based
pAkt (S473) = pAkt (S473) in cancer cell lines; type: cell-based

SMILES | sensitivity to growth inhibition by erlotinib (BxPC3 cells) | sensitivity to growth inhibition by erlotinib (Calu6 cells) | apoptosis relative to DMSO treated cells, single agent (three ovarian cell lines) | sensitivity to growth inhibition by erlotinib (H292 cells) | sensitivity to growth inhibition by erlotinib (H460 cells; 10 μM erlotinib, 72 hours, maximal growth inhibition greater than 50% = high sensitivity) | reduction in tumor growth as single agent (Calu-6 NSCLC tumor cells) | apoptosis relative to DMSO treated cells, single agent [1] | IC50 [2] | solubility [3] | sensitivity to growth inhibition by erlotinib (HCT-116 cells) | down-regulation of phosphorylation of S6 ([4]; relatively insensitive cell lines that have undergone EMT (H460, Calu6, HCT-116)) | down-regulation of phosphorylation of S6 ([4]; three sensitive epithelial cell lines (H292, H358, BxPC3)) | sensitivity to growth inhibition by erlotinib (H358 cells) | cell lines in a given tumor type that are insensitive (tumor cells) | cancer cell lines in which pAkt (S473) is inhibited (pAkt (S473)) | cell lines in which treatment increases pAkt (S473) (pAkt (S473)) | Emax (H460 cells; Homo sapiens, NCI-H460, rapamycin without erlotinib, read-out: maximal efficacy (growth inhibition)) | IC50 (H460 cells; Homo sapiens, NCI-H460, rapamycin without erlotinib, read-out: potency (growth inhibition))
C#Cc1cccc(Nc2ncnc3cc(OCCOC)c(OCCOC)cc23)c1 [erlotinib, [6,7-bis(2-methoxyethoxy)-4-quinazolin-4-yl]-(3-ethynylphenyl) amine] | most sensitive | relatively insensitive | increased apoptosis | most sensitive | relatively insensitive | no statistically significant reduction; also recorded: Neither rapamycin or erlotinib showed significant reduction | modest increase | > 10000 nM | 10 µM (≈ 3.93 µg/mL) | relatively insensitive | less pronounced down-regulation | efficiently down-regulate | most sensitive |  |  |  |  | 
CO[C@H]1C[C@@H]2CC[C@@H](C)[C@@](O)(O2)C(=O)C(=O)N2CCCC[C@H]2C(=O)O[C@H]([C@H](C)C[C@@H]2CC[C@@H](O)[C@H](OC)C2)CC(=O)[C@H](C)/C=C(\C)[C@@H](O)[C@@H](OC)C(=O)[C@H](C)C[C@H](C)/C=C/C=C/C=C/1C [rapamycin] |  |  |  |  |  |  |  |  |  |  |  |  |  | approximately 50% | ~20% | ~65% | 34% | 0.267 nM
